According to article PMC11470957, “Principles of paralog-specific targeted protein degradation engaging the C-degron E3 KLHDC2” (Nature Communications, 2024):
“And” between values parts separate entries of the source, which are not always exact repeats. Equal entries are not always repeated. Where two headings read alike, the source gives them in different places.

How the values were obtained:
BRD2 = BRD2 (Homo sapiens, UniProt P25440); experiment: Western blot of BRD2 levels after cellular dosing
BRD4 = BRD4 (Homo sapiens, UniProt O60885); experiment: Western blot of BRD4 levels after cellular dosing; conditions: for BRD4 level, Western blot quantification (DMSO = 100): 1 uM; for BRD4 level relative to DMSO (100%): U2OS KO/Rescue, 1µM, 24 h
KLHDC2 = target: T1, KLHDC2 (Homo sapiens, UniProt Q9Y2U9); experiment: Western blot of KLHDC2 levels after cellular dosing; conditions: for KLHDC2 level, Western blot quantification (DMSO = 100): 1 uM; for KLHDC2 level relative to DMSO (100%): U2OS KO/Rescue
T1 sequence (Q9Y2U9 1-406): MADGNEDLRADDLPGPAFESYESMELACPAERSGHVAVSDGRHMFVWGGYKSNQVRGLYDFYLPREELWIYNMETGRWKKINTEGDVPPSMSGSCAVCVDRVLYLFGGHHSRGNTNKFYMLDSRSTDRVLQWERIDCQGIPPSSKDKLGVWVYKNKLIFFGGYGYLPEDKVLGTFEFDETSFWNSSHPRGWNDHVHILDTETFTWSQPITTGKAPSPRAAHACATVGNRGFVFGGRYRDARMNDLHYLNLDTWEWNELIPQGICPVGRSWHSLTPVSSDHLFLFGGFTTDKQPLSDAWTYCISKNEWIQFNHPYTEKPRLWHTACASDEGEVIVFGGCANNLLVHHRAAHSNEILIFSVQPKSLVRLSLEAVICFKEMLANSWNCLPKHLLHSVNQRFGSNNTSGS

BRD3 = BRD3 (Homo sapiens, UniProt Q15059); experiment: Western blot of BRD3 levels after cellular dosing
[1] = U2OS, 24 h, read-out: BRD2 level relative to DMSO (100%), U2OS KO/Rescue, 1µM, 24 h, Fig 6d
[2] = U2OS, 24 h, read-out: BRD3 level relative to DMSO (100%), U2OS KO/Rescue, 1µM, 24 h, Fig 6d
[3] = U2OS, 24 h, read-out: BRD2 level relative to DMSO (100%), U2OS KO/Rescue, 1µM, 24 h, Fig 6c
[4] = U2OS, 24 h, read-out: BRD3 level relative to DMSO (100%), U2OS KO/Rescue, 1µM, 24 h, Fig 6c

Sequence of BRD2 (P25440 whole entry): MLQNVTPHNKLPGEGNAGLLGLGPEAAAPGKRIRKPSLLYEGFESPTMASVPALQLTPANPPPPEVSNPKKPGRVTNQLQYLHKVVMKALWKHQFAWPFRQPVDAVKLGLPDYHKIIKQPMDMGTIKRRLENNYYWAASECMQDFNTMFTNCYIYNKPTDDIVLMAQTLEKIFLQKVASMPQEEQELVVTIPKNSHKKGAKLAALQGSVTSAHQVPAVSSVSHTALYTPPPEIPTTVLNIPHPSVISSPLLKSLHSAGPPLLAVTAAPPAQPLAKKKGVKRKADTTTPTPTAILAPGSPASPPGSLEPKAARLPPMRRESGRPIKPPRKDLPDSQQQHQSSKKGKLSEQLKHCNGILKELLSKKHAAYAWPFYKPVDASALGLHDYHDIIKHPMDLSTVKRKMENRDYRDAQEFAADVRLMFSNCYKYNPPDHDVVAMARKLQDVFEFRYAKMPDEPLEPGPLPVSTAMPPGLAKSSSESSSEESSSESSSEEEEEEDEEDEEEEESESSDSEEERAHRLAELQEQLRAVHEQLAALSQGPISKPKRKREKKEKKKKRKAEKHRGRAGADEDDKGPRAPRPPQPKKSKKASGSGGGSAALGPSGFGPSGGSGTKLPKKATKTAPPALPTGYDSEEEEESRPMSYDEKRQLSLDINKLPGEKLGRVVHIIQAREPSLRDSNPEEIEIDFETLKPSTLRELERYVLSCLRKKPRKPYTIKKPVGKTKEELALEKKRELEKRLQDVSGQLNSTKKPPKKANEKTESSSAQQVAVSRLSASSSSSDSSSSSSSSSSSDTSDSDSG
Sequence of BRD3 (Q15059 whole entry): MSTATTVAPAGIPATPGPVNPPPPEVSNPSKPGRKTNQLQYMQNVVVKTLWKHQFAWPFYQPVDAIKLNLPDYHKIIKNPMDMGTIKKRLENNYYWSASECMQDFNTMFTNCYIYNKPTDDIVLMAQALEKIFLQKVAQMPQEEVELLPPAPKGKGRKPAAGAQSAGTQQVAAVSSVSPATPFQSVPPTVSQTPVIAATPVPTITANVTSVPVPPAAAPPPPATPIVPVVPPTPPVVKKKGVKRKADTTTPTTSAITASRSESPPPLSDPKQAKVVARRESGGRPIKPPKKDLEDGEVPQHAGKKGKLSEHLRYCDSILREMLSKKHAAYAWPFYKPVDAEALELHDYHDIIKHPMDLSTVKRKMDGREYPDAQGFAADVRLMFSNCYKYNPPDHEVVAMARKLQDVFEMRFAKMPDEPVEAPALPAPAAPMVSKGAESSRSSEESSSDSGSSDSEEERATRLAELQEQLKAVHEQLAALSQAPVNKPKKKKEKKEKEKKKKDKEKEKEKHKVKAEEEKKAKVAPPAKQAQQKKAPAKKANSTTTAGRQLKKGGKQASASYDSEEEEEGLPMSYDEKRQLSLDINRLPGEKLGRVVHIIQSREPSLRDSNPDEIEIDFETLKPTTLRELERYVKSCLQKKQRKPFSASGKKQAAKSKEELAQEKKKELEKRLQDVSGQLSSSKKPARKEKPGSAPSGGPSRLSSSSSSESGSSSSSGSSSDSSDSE

| SMILES | remaining activity at 1 µM (BRD2; [1]) | BRD4 level, Western blot quantification (DMSO = 100) (BRD4; Fig 6d) | BRD4 level relative to DMSO (100%) (BRD4; Fig 6d) | KLHDC2 level, Western blot quantification (DMSO = 100) (KLHDC2; Fig 6d) | KLHDC2 level relative to DMSO (100%) (KLHDC2; 1µM, 24 h, Fig 6d) | remaining activity at 1 µM (BRD3; [2]) | remaining activity at 1 µM (BRD2; [3]) | BRD4 level relative to DMSO (100%) (BRD4; Fig 6c) | KLHDC2 level relative to DMSO (100%) (KLHDC2; 1µM, 24 h, Fig 6c) | remaining activity at 1 µM (BRD3; [4]) | remaining activity at 1 µM (BRD2; U2OS, 24 h, read-out: BRD2 level relative to DMSO (100%), U2OS KO/Rescue, 1µM + co-dosing 1µM MLN4924, 24 h, Fig 6d) | remaining activity at 1 µM (BRD2; read-out: BRD2 level, Western blot quantification (DMSO = 100), Fig 6c, 1 uM) | remaining activity at 1 µM (BRD2; read-out: BRD2 level, Western blot quantification (DMSO = 100), Fig 6d, 1 uM) | BRD4 level, Western blot quantification (DMSO = 100) (BRD4; Fig 6c) | KLHDC2 level, Western blot quantification (DMSO = 100) (KLHDC2; Fig 6c) | KLHDC2 level relative to DMSO (100%) (KLHDC2; 1µM + co-dosing 1µM MLN4924, 24 h, Fig 6d) | remaining activity at 1 µM (BRD3; U2OS, 24 h, read-out: BRD3 level relative to DMSO (100%), U2OS KO/Rescue, 1µM + co-dosing 1µM MLN4924, 24 h, Fig 6d) | remaining activity at 1 µM (BRD3; read-out: BRD3 level, Western blot quantification (DMSO = 100), Fig 6c, 1 uM) | remaining activity at 1 µM (BRD3; read-out: BRD3 level, Western blot quantification (DMSO = 100), Fig 6d, 1 uM) |
| --- | --- | --- | --- | --- | --- | --- | --- | --- | --- | --- | --- | --- | --- | --- | --- | --- | --- | --- | --- |
| NS(=O)(=O)OC[C@@H]1C[C@@H](n2ccc3c(N[C@H]4CCc5ccccc54)ncnc32)C[C@@H]1O [MLN4924, reference compound] | 170 ± 21% | 136.422 and 116.069 | 130 +/- 14% | 3372.82 and 2800.12 | 3090 +/- 404% | 120 ± 23% | – | – | – | – | – | – | – | – | – | – | – | – | – |
| Cc1sc2c(c1C)C(c1ccc(Cl)cc1)=N[C@@H](CC(=O)N1CCN(CCOc3cccc4ccc(-c5nc(CC(=O)NCC(=O)OCc6ccccc6)cs5)cc34)CC1)c1nnc(C)n1-2 [SJ48087] | – | – | – | – | – | – | 90 ± 4% | 101 +/- 11% | 221 +/- 27% | 89 ± 7.3% | – | – | – | – | – | – | – | – | – |
| Cc1sc2c(c1C)C(c1ccc(Cl)cc1)=N[C@@H](CC(=O)N1CCN(CCOc3cccc4ccc(-c5nc(CC(=O)NCC(=O)OC6CCCC6)cs5)cc34)CC1)c1nnc(C)n1-2 [SJ48088] | 78 ± 7.4% | 72.2613 and 75.636 | 74 +/- 2.5% | 1961.3 and 1506.23 | 1733 +/- 321% | 24 ± 4.6% | 83 ± 9.7% | 79 +/- 9.6% | 606 +/- 190% | 46 ± 1.5% | 270 ± 67% | 75.6% | 73.2% | 85.9664 and 71.4338 | 472.526 and 740.895 | 4837 +/- 513% | 120 ± 6.2% | 47.1% | 20.7% |
